# How the values were obtained:
# Format in all cases: in vivo
# [1] = test system: common (oilseed) sunflower (Helianthus annuus); test: Test B pre-/postemergence plant response; details: Preemergence
# Outline: (§1)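 Visual scoring from 0 (no effect) to 100 (complete control) against untreated controls was done 13 to 15 days after greenhouse treatment. Chemicals were formulated in a surfactant-containing non-phytotoxic solvent and applied to soil preemergence or to 1- to 4-leaf (2-18 cm) plants postemergence.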
# [2] = test system: cocklebur (Xanthium strumarium); test: Test B pre-/postemergence plant response
# Outline: as §1
# [3] = test system: lambsquarters (Chenopodium album); test: Test B pre-/postemergence plant response
# Outline: as §1
# [4] = test system: surinam grass (Brachiaria decumbens); test: Test B pre-/postemergence plant response
# Outline: as §1
# [5] = test system: bermudagrass (Cynodon dactylon); test: Test B pre-/postemergence plant response
# Outline: as §1
# [6] = test system: wheat (Triticum aestivum); test: Test B pre-/postemergence plant response
# Outline: as §1
# [7] = test system: large crabgrass (Digitaria sanguinalis); test: Test B pre-/postemergence plant response
# Outline: as §1
# kochia (Kochia scoparia) = test: Test B pre-/postemergence plant response
# Outline: as §1
# corn (Zea mays) = test: Test B pre-/postemergence plant response
# Outline: as §1
# [8] = test system: goosegrass (Eleusine indica); test: Test B pre-/postemergence plant response
# Outline: as §1
# [9] = test system: common ragweed (Ambrosia elation); test: Test B pre-/postemergence plant response
# Outline: as §1
# soybean (Glycine max) = test: Test B pre-/postemergence plant response
# Outline: as §1
# [10] = test system: ducksalad (Heteranthera limosa); test: Test B flooded paddy test plant response
# Outline: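 Paddy-water application to 2-leaf plants in pots held under 3 cm of flooding; response is a 0–100 visual control rating against controls after 13 to 15 days, and a dash marks a missing result.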
# [11] = 8 g ai/ha, postemergence, 0-100 scale
# [12] = 16 g ai/ha, postemergence, 0-100 scale
# [13] = Postemergence, 31 g ai/ha, scale 0 to 100
# [14] = Postemergence, 62 g ai/ha, scale 0 to 100, 0 no effect, 100 complete control
# [15] = Preemergence, 8 g ai/ha, scale 0 to 100 (0 no effect, 100 complete control)
# [16] = Preemergence, 31 g ai/ha, scale 0 to 100 (0 no effect, 100 complete control)
# [17] = Preemergence, 62 g ai/ha, 0 to 100 scale, 0 no effect, 100 complete control
# [18] = Preemergence, 16 g ai/ha, scale 0 to 100
smiles,measurement,setting,value
CCc1c(C)c(-c2ccc(Br)cc2)nn1-c1c(O)cnn(C)c1=O [Compound 83],Sunflower plant response rating,"[1]; 8 g ai/ha, scale 0 to 100 (0 no effect, 100 complete control)",0
same,"Plant response rating, Sunflower","[1]; 31 g ai/ha, scale 0 to 100 (0 no effect, 100 complete control)",0
same,"Plant response rating, Sunflower","[1]; 62 g ai/ha, 0 to 100 scale, 0 no effect, 100 complete control",0
same,Sunflower plant response rating,"[1]; 16 g ai/ha, scale 0 to 100",0
same,Cocklebur plant response rating,[2]; [11],0
same,Cocklebur plant response rating,[2]; [12],0
same,"Plant response rating, Cocklebur",[2]; [13],0
same,"Plant response rating, Cocklebur",[2]; [14],0
same,Cocklebur plant response rating,[2]; [15],0
same,"Plant response rating, Cocklebur",[2]; [16],0
same,"Plant response rating, Cocklebur",[2]; [17],0
same,Cocklebur plant response rating,[2]; [18],0
same,Lambsquarters plant response rating,[3]; [11],0
same,Lambsquarters plant response rating,[3]; [12],0
same,"Plant response rating, Lambsquarters",[3]; [13],0
same,"Plant response rating, Lambsquarters",[3]; [14],0
same,Lambsquarters plant response rating,[3]; [15],100
same,"Plant response rating, Lambsquarters",[3]; [16],100
same,"Plant response rating, Lambsquarters",[3]; [17],100
same,Lambsquarters plant response rating,[3]; [18],100
same,Surinam Grass plant response rating,[4]; [11],85
same,Surinam Grass plant response rating,[4]; [12],100
same,"Plant response rating, Surinam Grass",[4]; [13],100
same,"Plant response rating, Surinam Grass",[4]; [14],100
same,Surinam Grass plant response rating,[4]; [15],55
same,"Plant response rating, Surinam Grass",[4]; [16],98
same,"Plant response rating, Surinam Grass",[4]; [17],100
same,Surinam Grass plant response rating,[4]; [18],90
same,Bermudagrass plant response rating,[5]; [11],40
same,Bermudagrass plant response rating,[5]; [12],65
same,"Plant response rating, Bermudagrass",[5]; [13],85
same,"Plant response rating, Bermudagrass",[5]; [14],90
same,Bermudagrass plant response rating,[5]; [15],55
same,Bermudagrass plant response rating,"[5]; Preemergence, 16 g ai/ha, scale 0 to 100 (0 no effect, 100 complete control)",65
same,"Plant response rating, Bermudagrass",[5]; [16],100
same,"Plant response rating, Bermudagrass",[5]; [17],100
same,Wheat plant response rating,[6]; [11],40
same,Wheat plant response rating,[6]; [12],55
same,"Plant response rating, Wheat",[6]; [13],90
same,"Plant response rating, Wheat",[6]; [14],95
same,Wheat plant response rating,[6]; [15],0
same,"Plant response rating, Wheat",[6]; [16],0
same,"Plant response rating, Wheat",[6]; [17],20
same,Wheat plant response rating,[6]; [18],0
same,"Crabgrass, Large plant response rating",[7]; [11],80
same,"Crabgrass, Large plant response rating",[7]; [12],95
same,"Plant response rating, Crabgrass, Large",[7]; [13],100
same,"Plant response rating, Crabgrass, Large",[7]; [14],100
same,"Crabgrass, Large plant response rating",[7]; [15],0
same,"Plant response rating, Crabgrass, Large",[7]; [16],85
same,"Plant response rating, Crabgrass, Large",[7]; [17],100
same,"Crabgrass, Large plant response rating",[7]; [18],35
same,Kochia plant response rating,kochia (Kochia scoparia); [11],0
same,Kochia plant response rating,kochia (Kochia scoparia); [12],0
same,"Plant response rating, Kochia",kochia (Kochia scoparia); [13],0
same,"Plant response rating, Kochia",kochia (Kochia scoparia); [14],0
same,Kochia plant response rating,kochia (Kochia scoparia); [15],50
same,"Plant response rating, Kochia",kochia (Kochia scoparia); [16],100
same,"Plant response rating, Kochia",kochia (Kochia scoparia); [17],100
same,Kochia plant response rating,kochia (Kochia scoparia); [18],100
same,Corn plant response rating,corn (Zea mays); [11],65
same,Corn plant response rating,corn (Zea mays); [12],95
same,"Plant response rating, Corn",corn (Zea mays); [13],98
same,"Plant response rating, Corn",corn (Zea mays); [14],100
same,Corn plant response rating,corn (Zea mays); [15],0
same,"Plant response rating, Corn",corn (Zea mays); [16],95
same,"Plant response rating, Corn",corn (Zea mays); [17],95
same,Corn plant response rating,corn (Zea mays); [18],45
same,Goosegrass plant response rating,[8]; [11],0
same,Goosegrass plant response rating,[8]; [12],45
same,"Plant response rating, Goosegrass",[8]; [13],55
same,"Plant response rating, Goosegrass",[8]; [14],60
same,Goosegrass plant response rating,[8]; [15],55
same,"Plant response rating, Goosegrass",[8]; [16],95
same,"Plant response rating, Goosegrass",[8]; [17],100
same,Goosegrass plant response rating,[8]; [18],80
same,Ragweed plant response rating,[9]; [11],0
same,Ragweed plant response rating,[9]; [12],0
same,"Plant response rating, Ragweed",[9]; [13],0
same,"Plant response rating, Ragweed",[9]; [14],0
same,Ragweed plant response rating,[9]; [15],0
same,"Plant response rating, Ragweed",[9]; [16],0
same,"Plant response rating, Ragweed",[9]; [17],0
same,Ragweed plant response rating,[9]; [18],0
same,Soybean plant response rating,soybean (Glycine max); [11],0
same,Soybean plant response rating,soybean (Glycine max); [12],0
same,"Plant response rating, Soybean",soybean (Glycine max); [13],0
same,"Plant response rating, Soybean",soybean (Glycine max); [14],0
same,Soybean plant response rating,soybean (Glycine max); [15],0
same,"Plant response rating, Soybean",soybean (Glycine max); [16],0
same,"Plant response rating, Soybean",soybean (Glycine max); [17],0
same,Soybean plant response rating,soybean (Glycine max); [18],0
same,"Plant response rating, Ducksalad","[10]; Flood (flooded paddy test), 125 g ai/ha, scale 0 to 100, 0 no effect, 100 complete control",0
same,"Plant response rating, Ducksalad","[10]; Flood, 31 g ai/ha, scale 0 to 100",0
same,"Plant response rating, Ducksalad","[10]; Flood, 62 g ai/ha, scale 0 to 100",0
